# Test results published in patent US9415046B2, “Compositions and methods for inhibiting inflammation from and rejection of biomaterials and other methods” (YALE UNIVERSITY, priority 2009, dated 2016).
# Entries after “also recorded” stand apart in the source; their conditions may differ.
# Assays:
# Assay type in all cases: in vivo
# [1] = test system: C57BL/6 mice; assay: Foreign body reaction to 150 micron polystyrene beads injected into the abdominal cavity; settings: 24 hours, FIG. 2
# Experimental: (§1) Two models of the foreign body reaction were tested. In the first model, injection of 150 micron polystyrene beads into the abdominal cavity of C57BL/6 was followed by analysis of cellular infiltrate 24 hours later. In the second model, implantation of a 6 mm disc of silicone subcutaneously was followed by analysis of the foreign body reaction about one month later. The above two models were performed on mice on normal drinking water or with aspirin (60 mg/ml). […] The experiment evidenced that the cellular infiltrate at 24 hours was comprised principally of immune cells (neutrophils and macrophages).
# [2] = test system: wild-type mice; assay: Foreign body reaction to subcutaneously implanted 6 mm silicone disc; settings: silicone implant, one month, aspirin 60 mg/ml in drinking water, P<0.05 compared to no ASA, FIG. 7
# Experimental: as §1, with “macrophages). […] A 6 mm disc of silicone was implanted subcutaneously in experimental mice (see above), followed by analysis of the foreign body reaction around one month later. The mice were placed on normal drinking water or water with aspirin at a concentration of 60 mg/ml. […] Wild-type mice were implanted with a silicone capsule on the side of the muscle and on the side of the skin. The mice were either given regular drinking water or drinking water containing 60 mg/ml aspirin. After one month, the mice were then analyzed to determine if there was an impact on the foreign body reaction which occurred as a consequence of implanting the silicone capsulate.” for “macrophages).”
# [3] = test system: wild-type mice; assay: APAP (acetaminophen) induced liver inflammation, liver injury and mortality; settings: by down regulation of pro-inflammatory cytokines
# Experimental: APAP (Sigma, Mo.) solution was made fresh for each experiment in PBS at 20 mg/ml and heated in a water bath to 55° C. to dissolve. APAP was dosed at 500 mg/kg and injected I.P after 15 hrs of starvation. Animals were euthanized by ketamine/xylazine injection at 12 hours for collection of serum, isolation of liver lymphocytes or collection of liver tissue for histology, or they were observed every four hours for 72 hours until they reached criteria for euthanasia (lack of response to stimuli or lack of righting reflex). FIGS. 3A and B show less hemorrhage and cell death in the livers of mice lacking TLR9 compared to wild-type and FIGS. 3C and D show a similar affect of TLR7. […] The data was generated by a single ip injection of APAP at a dose of 500 mg/kg. Data in Figures A to D was generated 12 hours after APAP and E and F is over a 3 day period.
# Data was generated 12 hours after injection of APAP. […] The data was generated over 72 hours (3 days). […] Data was generated from 23 hours after injection of APAP.
smiles,measurement,setting,value
"CC(=O)Oc1ccccc1C(=O)O [aspirin, acetylsalicylic acid]",foreign body reaction to polystyrene beads (number of cells in cellular infiltrate),[1]; continuous aspirin in drinking water (60 mg/ml),substantially diminished; also recorded: significantly reduced
same,composition of the cellular infiltrate (neutrophils and macrophages),[1]; continuous aspirin,not significantly altered
same,thickness of the foreign body reaction capsule on the side of the muscle and on the side of the skin,[2],significant reduction
same,effect on acetaminophen-induced liver injury,[3],protective effect
